Experimental data as given in US9701693B2, “Selective glycosidase inhibitors and uses thereof” (Alectos Therapeutics Inc., priority 2011, dated 2017).

Legend:
[1] = test system: O-GlcNAcase in rat PC-12 cells; assay: Cell-based ELISA for cellular O-GlcNAcase inhibition (O-GlcNAcylated protein, RL-2 antibody); settings: 24 h treatment, O-GlcNAcylated protein detected with RL-2 antibody
From the text: Assay for Determination of Cellular Activity for Compounds that Inhibit O-GlcNAcase Activity
Inhibition of O-GlcNAcase, which removes O-GlcNAc from cellular proteins, results in an increase in the level of O-GlcNAcylated protein in cells. An increase in O-GlcNAcylated protein can be measured by an antibody, such as RL-2, that binds to O-GlcNAcylated protein. The amount of O-GlcNAcylated protein:RL2 antibody interaction can be measured by enzyme linked immunosorbant assay (ELISA) procedures.
A variety of tissue culture cell lines, expressing endogenous levels of O-GlcNAcase, can be utilized; examples include rat PC-12, and human U-87, or SK-N-SH cells. […] If desired, the total protein concentration of samples was determined using 20 μL of the sample using the BCA method.
The ELISA portion of the assay was performed in a black Maxisorp 96-well plate that was coated overnight at 4° C. with 100 μL/well of the cell lysate (1:10 dilution of the lysate with PBS containing protease inhibitors, phosphatase inhibitors, and PMSF). […] The detection reaction was incubated for 15 minutes at room temperature and then read with excitation at 530 nm and emission at 590 nm
The amount of O-GlcNAcylated protein, as detected by the ELISA assay, was plotted for each concentration of test compound using standard curve fitting algorithms for sigmoidal dose response curves. […]

human O-GlcNAcase = human O-GlcNAcase (Homo sapiens (Human), UniProt O60502); assay: Fluorescence-based assay for determination of KI values for inhibition of O-GlcNAcase activity; format: biochemical; settings: purified human O-GlcNAcase 0.7 nM, 2 mM 4-Methylumbelliferyl N-acetyl-β-D-glucosaminide, pH 7.0, Cheng-Prusoff; read-out: Fluorescence-based hOGA Ki
Chain of human O-GlcNAcase (O60502 whole entry): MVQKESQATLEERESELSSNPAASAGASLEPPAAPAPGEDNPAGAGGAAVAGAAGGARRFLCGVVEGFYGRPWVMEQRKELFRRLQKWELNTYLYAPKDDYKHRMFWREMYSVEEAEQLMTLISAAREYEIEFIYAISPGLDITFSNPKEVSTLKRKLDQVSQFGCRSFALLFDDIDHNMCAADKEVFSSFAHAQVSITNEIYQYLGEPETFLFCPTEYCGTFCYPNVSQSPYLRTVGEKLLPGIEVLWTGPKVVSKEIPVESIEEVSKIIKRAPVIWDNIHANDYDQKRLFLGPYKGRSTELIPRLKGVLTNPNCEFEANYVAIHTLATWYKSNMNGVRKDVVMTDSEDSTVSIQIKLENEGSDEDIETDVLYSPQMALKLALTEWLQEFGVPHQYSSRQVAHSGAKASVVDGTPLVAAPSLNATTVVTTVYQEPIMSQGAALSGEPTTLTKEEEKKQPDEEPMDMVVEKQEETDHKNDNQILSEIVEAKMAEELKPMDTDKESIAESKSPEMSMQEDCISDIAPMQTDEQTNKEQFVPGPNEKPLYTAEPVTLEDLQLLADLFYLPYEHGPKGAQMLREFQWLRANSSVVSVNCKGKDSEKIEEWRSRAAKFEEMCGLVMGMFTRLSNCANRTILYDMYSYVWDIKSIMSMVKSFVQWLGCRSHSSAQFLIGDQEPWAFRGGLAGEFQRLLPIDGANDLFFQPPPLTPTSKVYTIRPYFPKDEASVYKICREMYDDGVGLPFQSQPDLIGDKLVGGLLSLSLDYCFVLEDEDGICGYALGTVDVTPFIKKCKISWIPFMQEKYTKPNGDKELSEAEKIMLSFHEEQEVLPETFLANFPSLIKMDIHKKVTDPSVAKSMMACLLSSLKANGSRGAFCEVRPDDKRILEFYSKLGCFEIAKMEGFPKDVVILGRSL
Protocol: Assay for Determination of KIValues for Inhibition of O-GlcNAcase Activity Experimental procedure for kinetic analyses: Enzymatic reactions were carried out in a reaction containing 50 mM NaH2PO4, 100 mM NaCl and 0.1% BSA (pH 7.0) using 2 mM 4-Methylumbelliferyl N-acetyl-β-D-glucosaminide dihydrate (Sigma M2133) dissolved in ddH2O, as a substrate. The amount of purified human O-GlcNAcase enzyme used in the reaction was 0.7 nM. Test compound of varying concentrations was added to the enzyme prior to initiation of the reaction. The reaction was performed at room temperature in a 96-well plate and was initiated with the addition of substrate. […] The slope of product production was determined for each concentration of compound tested and plotted, using standard curve fitting algorithms for sigmoidal dose response curves. The values for a four parameter logistic curve fit of the data were determined.

Question: For `CNC1=N[C@@H]2[C@H](O)[C@H](O)[C@@H](CO)O[C@@H]2S1` [Example 4, (3aR,5R,6S,7S,7aR)-5-(hydroxymethyl)-2-(methylamino)-5,6,7,7a-tetrahydro-3aH-pyrano[3,2-d]thiazole-6,7-diol], which EC50 [1] is on record?
Answer: 109 nM

Question: How did the Ki (human O-GlcNAcase) turn out when `CN(C)C1=N[C@@H]2[C@@H](O)[C@@H](O)[C@@H](CO)O[C@@H]2S1` [Example 2, (3aR,5R,6R,7R,7aR)-2-(dimethylamino)-5-(hydroxymethyl)-5,6,7,7a-tetrahydro-3aH-pyrano[3,2-d]thiazole-6,7-diol] was run?
Answer: 28.6 nM
